Inconclusive results and toxic doses are left out. Rule as the data show it: active = T/C of 150% or more; inactive = T/C below 125%.
Tested on: L1210 leukemia ip in BDF1 mice, survival T/C
Test: NCI In Vivo Anticancer Drug Screen. Data for tumor model L1210 Leukemia (intraperitoneal) in B6D2F1 (BDF1) mice
Conditions: endpoint: mean survival time, higher = longer survival
How it was run: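 Each compound was tested against a transplantable tumor grown in mice. The endpoint was survival, with treated animals benchmarked against vehicle controls as a simple ratio.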

[1] = dose: 100.0 mg/kg/injection, schedule: Q01DX009 (ip), vehicle: Klucel (hydroxypropylcellulose) (HPC)
[2] = dose: 200.0 mg/kg/injection, schedule: Q01DX009 (ip), vehicle: Klucel (hydroxypropylcellulose) (HPC)
[3] = dose: 400.0 mg/kg/injection, schedule: Q01DX009 (ip), vehicle: Klucel (hydroxypropylcellulose) (HPC)
[4] = dose: 100.0 mg/kg/injection, schedule: Q04DX002 (ip), vehicle: saline with Tween-80
[5] = dose: 100.0 mg/kg/injection, schedule: Q04DX003 (ip), vehicle: saline
[6] = dose: 200.0 mg/kg/injection, schedule: Q04DX003 (ip), vehicle: saline
[7] = dose: 400.0 mg/kg/injection, schedule: Q04DX003 (ip), vehicle: saline
[8] = dose: 100.0 mg/kg/injection, schedule: Q04DX003 (ip), vehicle: Klucel (hydroxypropylcellulose) (HPC)
[9] = dose: 200.0 mg/kg/injection, schedule: Q04DX003 (ip), vehicle: Klucel (hydroxypropylcellulose) (HPC)
[10] = dose: 400.0 mg/kg/injection, schedule: Q04DX003 (ip), vehicle: Klucel (hydroxypropylcellulose) (HPC)
[11] = dose: 25.0 mg/kg/injection, schedule: Q01DX009 (ip), vehicle: water
[12] = dose: 50.0 mg/kg/injection, schedule: Q01DX009 (ip), vehicle: water
[13] = dose: 100.0 mg/kg/injection, schedule: Q01DX009 (ip), vehicle: water
[14] = dose: 200.0 mg/kg/injection, schedule: Q01DX009 (ip), vehicle: water
[15] = dose: 100.0 mg/kg/injection, schedule: Q04DX002 (ip), vehicle: saline
[16] = dose: 200.0 mg/kg/injection, schedule: Q04DX002 (ip), vehicle: saline
[17] = dose: 400.0 mg/kg/injection, schedule: Q04DX002 (ip), vehicle: saline
[18] = dose: 100.0 mg/kg/injection, schedule: Q01DX009 (ip), vehicle: saline with Tween-80

Measured: T/C

Cc1noc2c1ncc[n+]2[O-]
inactive: dose: 5.0 mg/kg/injection, schedule: Q01DX009 (ip), vehicle: saline with Tween-80 89 % of control | dose: 10.0 mg/kg/injection, schedule: Q01DX009 (ip), vehicle: saline with Tween-80 91 % of control | dose: 20.0 mg/kg/injection, schedule: Q01DX009 (ip), vehicle: saline with Tween-80 86 % of control

CN(C)c1ccc(C=Nc2ccc(Cc3ccncc3)cc2)cc1
inactive: [1] 99 % of control | [2] 98 % of control | [3] 100 % of control

C[P+]1(c2ccccc2)CCC(N)=C(C#N)C1 (stereo not drawn)
inactive: [4] 100 % of control

CN(C)CCCOC(=O)C1C2CC3OC(=O)C1C3C2 (stereo not drawn)
inactive: [5] 93 % of control | [6] 96 % of control | [7] 101 % of control

O=C(O)CCN1C/C(=C\c2ccccc2)C(=O)C1=O
inactive: [5] 101 % of control | [6] 101 % of control | [7] 101 % of control

CCN1CCCCCCCCCC(=N/O)/C(=N\O)C1
inactive: dose: 50.0 mg/kg/injection, schedule: Q01DX001 (ip), vehicle: saline 101 % of control | dose: 100.0 mg/kg/injection, schedule: Q01DX001 (ip), vehicle: saline 103 % of control | dose: 200.0 mg/kg/injection, schedule: Q01DX001 (ip), vehicle: saline 95 % of control

COC(=O)Nc1cccc2c1-c1ccccc1C2=O
inactive: dose: 50.0 mg/kg/injection, schedule: Q04DX003 (ip), vehicle: Klucel (hydroxypropylcellulose) (HPC) 95 % of control | [8] 95 % of control | [9] 100 % of control

CC(=O)Oc1c2n(c(=O)c3cocc13)Cc1cc3ccccc3nc1-2
inactive: dose: 100.0 mg/kg/injection, schedule: Q01DX001 (ip), vehicle: Klucel (hydroxypropylcellulose) (HPC) 92 % of control | dose: 200.0 mg/kg/injection, schedule: Q01DX001 (ip), vehicle: Klucel (hydroxypropylcellulose) (HPC) 94 % of control | dose: 400.0 mg/kg/injection, schedule: Q01DX001 (ip), vehicle: Klucel (hydroxypropylcellulose) (HPC) 90 % of control

COc1cc(/C=N/NC(=O)c2ccccc2)ccc1O
inactive: [8] 100 % of control | [9] 95 % of control | [10] 94 % of control

Cc1ccc(C(c2ccc(C)cc2)C(Cl)(Cl)Cl)cc1
inactive: dose: 100.0 mg/kg/injection, schedule: Q01DX001 (ip), vehicle: saline sonified 93 % of control | dose: 200.0 mg/kg/injection, schedule: Q01DX001 (ip), vehicle: saline sonified 96 % of control | dose: 400.0 mg/kg/injection, schedule: Q01DX001 (ip), vehicle: saline sonified 88 % of control

CC(=O)OCCN1C(=O)CN=C(c2ccccn2)c2cc(Cl)ccc21
inactive: [1] 99 % of control | [8] 100 % of control | [2] 102 % of control | [9] 101 % of control | [3] 94 % of control | [10] 97 % of control

COc1ccccc1C(=O)NN
inactive: dose: 6.25 mg/kg/injection, schedule: Q04DX003 (ip), vehicle: saline 98 % of control | dose: 12.5 mg/kg/injection, schedule: Q04DX003 (ip), vehicle: saline 98 % of control | dose: 25.0 mg/kg/injection, schedule: Q01DX009 (ip), vehicle: saline 106 % of control | dose: 25.0 mg/kg/injection, schedule: Q04DX003 (ip), vehicle: saline 103 % of control | dose: 50.0 mg/kg/injection, schedule: Q01DX009 (ip), vehicle: saline 110 % of control

CCOC(=O)N1C=Cc2ccccc2C1C#N (stereo not drawn)
inactive: dose: 100.0 mg/kg/injection, schedule: Q01DX001 (ip), vehicle: carboxymethylcellulose (CMC) 124 % of control | dose: 200.0 mg/kg/injection, schedule: Q01DX001 (ip), vehicle: carboxymethylcellulose (CMC) 98 % of control | dose: 400.0 mg/kg/injection, schedule: Q01DX001 (ip), vehicle: carboxymethylcellulose (CMC) 93 % of control

O/C(=C/C(=S)S)c1ccco1
inactive: [11] 87 % of control | [12] 93 % of control | [13] 88 % of control | [14] 90 % of control | dose: 400.0 mg/kg/injection, schedule: Q01DX009 (ip), vehicle: water 93 % of control

Cc1ncn[nH]1
inactive: [15] 96 % of control | [16] 100 % of control | [17] 89 % of control

CC(=O)Nc1ccc(C)c([N+](=O)[O-])c1
inactive: dose: 100.0 mg/kg/injection, schedule: Q01DX009 (ip), vehicle: saline 100 % of control | [5] 98 % of control | dose: 200.0 mg/kg/injection, schedule: Q01DX009 (ip), vehicle: saline 93 % of control | [6] 93 % of control | dose: 400.0 mg/kg/injection, schedule: Q01DX009 (ip), vehicle: saline 97 % of control | [7] 102 % of control

O=C(O)C(O)c1cccc2ccccc12 (stereo not drawn)
inactive: [18] 100 % of control | dose: 200.0 mg/kg/injection, schedule: Q01DX009 (ip), vehicle: saline with Tween-80 100 % of control

CC1(C)CC(=NNC(N)=S)CC(C)(C)N1O
inactive: dose: 25.0 mg/kg/injection, schedule: Q04DX002 (ip), vehicle: saline 102 % of control | dose: 50.0 mg/kg/injection, schedule: Q04DX002 (ip), vehicle: saline with Tween-80 93 % of control | dose: 50.0 mg/kg/injection, schedule: Q04DX002 (ip), vehicle: saline 94 % of control | [4] 101 % of control

NC(N)=N/N=C(C(=O)O)/C(=N\N=C(N)N)C(=O)O
inactive: dose: 30.0 mg/kg/injection, schedule: Q01DX Z (oral), vehicle: carboxymethylcellulose (CMC) 101 % of control | dose: 60.0 mg/kg/injection, schedule: Q01DX Z (oral), vehicle: carboxymethylcellulose (CMC) 101 % of control | dose: 120.0 mg/kg/injection, schedule: Q01DX Z (oral), vehicle: carboxymethylcellulose (CMC) 101 % of control | dose: 240.0 mg/kg/injection, schedule: Q01DX Z (oral), vehicle: carboxymethylcellulose (CMC) 109 % of control | dose: 480.0 mg/kg/injection, schedule: Q01DX Z (oral), vehicle: carboxymethylcellulose (CMC) 106 % of control | dose: 960.0 mg/kg/injection, schedule: Q01DX Z (oral), vehicle: carboxymethylcellulose (CMC) 106 % of control

C[N+](C)(C)N1C(=O)C2C3c4ccccc4C(C2C1=O)[n+]1ccccc13 (stereo not drawn)
inactive: dose: 9.38 mg/kg/injection, schedule: Q01DX001 (ip), vehicle: other 86 % of control | dose: 18.75 mg/kg/injection, schedule: Q01DX001 (ip), vehicle: other 105 % of control

CC1(O)c2ccccc2-c2nc3ccccc3nc21 (stereo not drawn)
inactive: dose: 50.0 mg/kg/injection, schedule: Q01DX009 (ip), vehicle: saline sonified 89 % of control | dose: 100.0 mg/kg/injection, schedule: Q01DX009 (ip), vehicle: saline sonified 102 % of control | dose: 100.0 mg/kg/injection, schedule: Q04DX003 (ip), vehicle: saline sonified 94 % of control | dose: 200.0 mg/kg/injection, schedule: Q01DX009 (ip), vehicle: saline sonified 102 % of control | dose: 200.0 mg/kg/injection, schedule: Q04DX003 (ip), vehicle: saline sonified 110 % of control | dose: 400.0 mg/kg/injection, schedule: Q04DX003 (ip), vehicle: saline sonified 87 % of control

CC(C)(CNCc1ccccc1)COS(=O)(=O)O
inactive: [5] 102 % of control | [6] 102 % of control | [7] 100 % of control

OC(CC1(O)C(F)(F)C(F)(F)C1(F)F)c1ccccc1 (stereo not drawn)
inactive: [18] 97 % of control | dose: 400.0 mg/kg/injection, schedule: Q01DX009 (ip), vehicle: saline with Tween-80 100 % of control

NC(=S)N1CCOCC1
inactive: [15] 97 % of control | [16] 101 % of control | [17] 108 % of control

CN(C)c1ccc(/C=C/c2nc3ccc([N+](=O)[O-])cc3[nH]2)cc1
inactive: dose: 50.0 mg/kg/injection, schedule: Q01DX009 (ip), vehicle: Klucel (hydroxypropylcellulose) (HPC) 97 % of control | [1] 97 % of control | [8] 97 % of control | [2] 92 % of control | [9] 102 % of control | [3] 94 % of control | [10] 103 % of control

O=C1NC(CN2CCCC(O)C2)C(=O)NC1CN1CCCC(O)C1 (stereo not drawn) (tested in a mixture with another compound)
inactive: [11] 104 % of control | [12] 104 % of control | [13] 112 % of control | [14] 108 % of control

CC1CC(=O)Nc2ccccc2N1 (stereo not drawn)
inactive: [8] 97 % of control | [9] 100 % of control | [10] 103 % of control

Source: PubChem BioAssay AID248 (DTP/NCI, 2004)
